US4242350A, “Antisecretory thiadiazole derivatives, processes for their manufacture and pharmaceutical compositions containing them” (Imperial Chemical Industries Limited, priority 1978, dated 1980)

Tests used:
[1] = oral toxicity in rodents; format: in vivo; settings: dosed orally to rodents at 300 mg/kg
[2] = oral tolerance in dogs; format: in vivo; settings: dogs dosed orally with 100 mg./kg.
Description: No overt toxicity or side effects were noted during the dog tests.

Structure (SMILES): CNC(=NC#N)NCCSCc1nsc(NC(=N)N)n1 [3-[2-(2-cyano-3-methylguanidino)ethylthiomethyl]-5-guanidino-1,2,4-thiadiazole]
- toxicity [1]: no toxicity
- tolerance [2]: well tolerated
